In patent US9808466B2, “Macrocyclic compounds as protein kinase inhibitors” (Fundación Centro Nacional de Investigaciones Oncologicas …, priority 2011, dated 2017):
pIC50: −log10 of the molar value. Like-named read-outs stand apart in the source and are kept apart here.

What was measured:
PI3K (p110α/p85α) = molecular target: T1, PI3K (p110α/p85α) (Homo sapiens, UniProt P42336); assay: PI3K activity assay (ADP Hunter Plus); type: biochemical
T1 construct: purchased Carna Biosciences 07CBS-0402A
T1 sequence (P42336 whole entry): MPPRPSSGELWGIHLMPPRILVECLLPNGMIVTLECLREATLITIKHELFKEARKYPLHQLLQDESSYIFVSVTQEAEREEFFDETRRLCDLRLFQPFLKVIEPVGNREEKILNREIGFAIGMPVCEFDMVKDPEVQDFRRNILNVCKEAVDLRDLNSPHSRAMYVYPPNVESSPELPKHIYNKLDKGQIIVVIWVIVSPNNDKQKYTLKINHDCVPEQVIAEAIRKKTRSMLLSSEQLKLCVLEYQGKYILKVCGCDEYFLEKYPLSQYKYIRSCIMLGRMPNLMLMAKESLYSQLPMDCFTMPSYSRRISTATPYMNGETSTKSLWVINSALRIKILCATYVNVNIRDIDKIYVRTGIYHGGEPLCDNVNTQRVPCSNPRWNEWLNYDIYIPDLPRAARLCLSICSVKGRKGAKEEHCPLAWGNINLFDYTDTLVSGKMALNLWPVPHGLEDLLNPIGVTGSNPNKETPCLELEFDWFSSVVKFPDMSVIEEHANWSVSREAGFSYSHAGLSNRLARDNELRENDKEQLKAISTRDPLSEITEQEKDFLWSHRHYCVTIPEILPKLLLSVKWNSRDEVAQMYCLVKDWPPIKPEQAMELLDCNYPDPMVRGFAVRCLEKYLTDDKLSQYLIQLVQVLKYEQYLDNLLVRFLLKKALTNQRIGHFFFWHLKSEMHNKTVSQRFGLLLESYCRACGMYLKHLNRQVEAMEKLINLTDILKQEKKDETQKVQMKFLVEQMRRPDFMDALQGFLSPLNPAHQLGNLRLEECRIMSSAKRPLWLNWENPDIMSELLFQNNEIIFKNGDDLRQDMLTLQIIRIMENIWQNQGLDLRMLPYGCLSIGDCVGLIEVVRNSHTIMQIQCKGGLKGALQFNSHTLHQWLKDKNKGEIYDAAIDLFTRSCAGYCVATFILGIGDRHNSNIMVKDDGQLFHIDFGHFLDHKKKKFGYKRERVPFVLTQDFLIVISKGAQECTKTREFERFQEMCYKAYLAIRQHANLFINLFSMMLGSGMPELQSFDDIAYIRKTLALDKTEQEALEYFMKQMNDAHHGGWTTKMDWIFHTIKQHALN
T1 sequence (P27986 whole entry partner): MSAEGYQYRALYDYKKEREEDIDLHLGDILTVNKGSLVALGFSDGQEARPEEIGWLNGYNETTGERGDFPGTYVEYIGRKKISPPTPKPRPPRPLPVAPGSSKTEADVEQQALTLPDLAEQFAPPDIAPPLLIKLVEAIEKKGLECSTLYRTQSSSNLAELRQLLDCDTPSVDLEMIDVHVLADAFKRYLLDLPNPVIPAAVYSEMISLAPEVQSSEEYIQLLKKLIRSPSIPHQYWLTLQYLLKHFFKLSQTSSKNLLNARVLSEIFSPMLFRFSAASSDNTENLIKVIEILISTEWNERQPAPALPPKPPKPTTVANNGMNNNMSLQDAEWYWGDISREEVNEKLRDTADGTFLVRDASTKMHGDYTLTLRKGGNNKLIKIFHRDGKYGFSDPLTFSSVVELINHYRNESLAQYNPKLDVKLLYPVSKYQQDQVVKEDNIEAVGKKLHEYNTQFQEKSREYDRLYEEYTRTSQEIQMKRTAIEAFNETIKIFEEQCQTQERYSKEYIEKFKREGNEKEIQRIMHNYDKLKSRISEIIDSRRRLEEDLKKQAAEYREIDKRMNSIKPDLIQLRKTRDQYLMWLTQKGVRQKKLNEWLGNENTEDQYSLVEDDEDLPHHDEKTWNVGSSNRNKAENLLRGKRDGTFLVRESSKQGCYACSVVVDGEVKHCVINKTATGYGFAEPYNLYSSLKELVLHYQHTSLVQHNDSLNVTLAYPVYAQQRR
Method: The kinase activity was measured by using the commercial ADP Hunter™ Plus assay available from DiscoveRx (#33-016), which is a homogeneous assay to measure the accumulation of ADP, a universal product of kinase activity. […] Reaction was carried out for 1 hour at 25° C. Reagent A and B were sequentially added to the wells and plates were incubated for 30 min at 37° C. Fluorescence counts were read in a Victor instrument (Perkin Elmer) with the recommended settings (544 and 580 nm as excitation and emission wavelengths, respectively). Values were normalized against the control activity included for each enzyme (i.e., 100% PI3 kinase activity, without compound). These values were plotted against the inhibitor concentration and were fit to a sigmoid dose-response curve by using the Graphad software.

mTOR = molecular target: T2, mTOR (Homo sapiens, UniProt P42345); assay: mTOR assay (LanthaScreen kinase activity assay); type: biochemical
T2 construct: purchased Invitrogen PV4754
T2 sequence (P42345 1360-2549 limits assumed): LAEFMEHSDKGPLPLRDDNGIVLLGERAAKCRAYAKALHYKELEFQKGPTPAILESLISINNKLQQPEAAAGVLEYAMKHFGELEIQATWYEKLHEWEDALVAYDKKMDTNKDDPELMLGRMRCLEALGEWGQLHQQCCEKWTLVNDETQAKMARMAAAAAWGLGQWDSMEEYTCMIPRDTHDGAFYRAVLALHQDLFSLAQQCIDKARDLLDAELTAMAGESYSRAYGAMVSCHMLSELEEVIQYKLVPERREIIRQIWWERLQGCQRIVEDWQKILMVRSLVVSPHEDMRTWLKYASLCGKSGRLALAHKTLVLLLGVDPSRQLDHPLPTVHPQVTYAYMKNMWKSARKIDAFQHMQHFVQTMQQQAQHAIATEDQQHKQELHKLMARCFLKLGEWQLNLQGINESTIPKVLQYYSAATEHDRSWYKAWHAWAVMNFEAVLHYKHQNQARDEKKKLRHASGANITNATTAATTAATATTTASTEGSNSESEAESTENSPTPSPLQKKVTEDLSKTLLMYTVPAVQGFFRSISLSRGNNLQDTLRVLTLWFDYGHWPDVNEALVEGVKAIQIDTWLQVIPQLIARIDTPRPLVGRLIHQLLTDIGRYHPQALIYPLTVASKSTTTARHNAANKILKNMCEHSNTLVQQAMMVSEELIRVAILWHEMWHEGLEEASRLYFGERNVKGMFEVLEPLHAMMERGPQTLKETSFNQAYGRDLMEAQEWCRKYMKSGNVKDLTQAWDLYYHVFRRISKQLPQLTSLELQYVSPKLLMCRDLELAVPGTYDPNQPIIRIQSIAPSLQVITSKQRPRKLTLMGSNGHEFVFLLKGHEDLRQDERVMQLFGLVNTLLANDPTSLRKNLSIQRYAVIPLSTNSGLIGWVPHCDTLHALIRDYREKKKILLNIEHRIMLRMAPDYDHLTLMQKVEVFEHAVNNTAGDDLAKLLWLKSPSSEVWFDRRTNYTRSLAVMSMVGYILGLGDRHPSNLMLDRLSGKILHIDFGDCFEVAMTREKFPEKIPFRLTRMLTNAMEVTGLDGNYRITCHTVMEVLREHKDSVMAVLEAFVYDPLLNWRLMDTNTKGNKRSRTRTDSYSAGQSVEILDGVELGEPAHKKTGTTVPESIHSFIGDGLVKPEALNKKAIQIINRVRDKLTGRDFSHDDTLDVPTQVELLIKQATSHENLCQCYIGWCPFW
Method: The enzymatic mTOR activity was measured using a LanthaScreen™ kinase activity assay (Invitrogen). The enzyme was purchased from Invitrogen (PV4754), as well as the GFP-labeled substrate (4EBP1-GFP; PV4759) and the Tb-anti-p4EBP1(pThr46) antibody (PV4757). The assay was performed in 50 mM HEPES buffer, pH 7.5, containing 1.5 mM MnCl2, 10 mM MgCl2, 1 mM EGTA, 2.5 mM DTT and 0.01% Tween-20. The concentration of the assay components were the following: 0.24 nM mTOR kinase, 400 nM 4EBP1-GFP, […] and serial dilutions of the compound (inhibitor) to be evaluated. After 1 h incubation at room temperature, 20 mM EDTA was used to stop the reaction and terbium-labeled antibody (4 nM) added to detect phosphorylated product. The antibody associates with the phosphorylated product resulting in an increased TR-FRET value. The TR-FRET value (a dimensionless number) was calculated as the ratio of the acceptor signal (GFP, emission at 520 nm) to the donor signal (terbium, emission at 495 nm). Values were plotted against the inhibitor concentration and fitted to a sigmoid dose-response curve using GraphPad software.

PIM-1 = molecular target: T3, PIM-1 (Homo sapiens, UniProt P11309); assay: PIM-1 biochemical assay (ADP Hunter)
T3 construct: histidine tag (C); made in house
T3 sequence (P11309 whole entry): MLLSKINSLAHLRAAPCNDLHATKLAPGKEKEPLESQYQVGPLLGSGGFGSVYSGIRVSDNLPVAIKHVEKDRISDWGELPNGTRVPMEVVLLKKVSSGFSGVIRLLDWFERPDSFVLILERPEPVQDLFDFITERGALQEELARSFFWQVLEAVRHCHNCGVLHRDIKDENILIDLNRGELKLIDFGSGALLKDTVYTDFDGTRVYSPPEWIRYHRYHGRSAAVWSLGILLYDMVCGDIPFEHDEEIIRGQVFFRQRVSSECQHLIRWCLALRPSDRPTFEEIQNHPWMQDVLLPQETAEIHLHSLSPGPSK
Excerpt: The biochemical assay to measure PIM-1 activity relies on the ADP Hunter assay kit (DiscoveRx Corp., Cat. #90-0077), that determines the amount of ADP as direct product of the kinase enzyme activity.
The enzyme has been expressed and purified in-house as a recombinant human protein with a C-terminal histidine tag. The protein is active and stable.
Assay conditions were as indicated by the kit manufacturers with the following adaptations for the kinase activity step: • Kinase assay buffer and assay volume stay as recommended (15 mM HEPES, pH 7.4, 20 mM NaCl, 1 mM EGTA, 0.02% Tween 20, 10 mM MgCl2 and 0.1 mg/ml bovine γ-globulins/75 μl assay volume) • Incubation time and temperature: 60 min at 30° C. • PIM-1 concentration: 50 pg/μl • ATP concentration: 100 μM • PIM-1 substrate peptide: PIMtide ([…]) (SEQIDNO. 1) • Peptide concentration: 60 μM • Positive control for kinase activity inhibition: 1-10 μM Staurosporine • DMSO concentration have to stay below 2% during the kinase reaction
Assays were performed in either 96 or 384-well plates. The final outcome of the coupled reactions provided by the kit is the release of the fluorescent product Resorufin and has been measured with a multilabel HTS counter VICTOR V (PerkinElmer) using an excitation filter at 544 nm and an emission filter at 580 nm.

[1] = read-out: PI3K alpha activity, IC50 (semi-quantitative class)
[2] = read-out: PI3K alpha actual IC50 (in parentheses)
[3] = read-out: mTOR activity, IC50 (semi-quantitative class)
[4] = PIM1, read-out: PIM-1 activity, IC50 (semi-quantitative class)
[5] = PIM1, read-out: PIM-1 actual IC50 (in parentheses)
[6] = read-out: PI3K alpha IC50 (in parentheses)
[7] = read-out: PI3K alpha activity (semi-quantitative IC50)
[8] = read-out: mTOR activity (semi-quantitative IC50)
[9] = read-out: PIM-1 activity (semi-quantitative IC50)
[10] = read-out: mTOR actual IC50 (in parentheses)
[11] = read-out: PIM-1 IC50 (in parentheses)

| Structure (SMILES) | pIC50 (PI3K (p110α/p85α); [1]) | pIC50 (PI3K (p110α/p85α); [2]) | pIC50 (mTOR; [3]) | pIC50 (PIM-1; [4]) | pIC50 (PIM-1; [5]) | pIC50 (PI3K (p110α/p85α); [6]) | pIC50 (PI3K (p110α/p85α); [7]) | pIC50 (mTOR; [8]) | pIC50 (PIM-1; [9]) | pIC50 (mTOR; [10]) | pIC50 (PIM-1; [11]) | pIC50 (mTOR; read-out: mTOR IC50 (in parentheses)) |
| --- | --- | --- | --- | --- | --- | --- | --- | --- | --- | --- | --- | --- |
| COc1ncc2cc1NS(=O)(=O)c1cccc(c1)C(=O)NCc1cncc(c1)-c1cnc3sc-2nn13 [compound 8] | > 7.00 | 8.15 | < 6.00 | < 6.00 | – | – | – | – | – | – | – | – |
| COc1ncc2cc1NS(=O)(=O)c1cccc(c1)C(=O)NCc1csc(c1)-c1ncnc3c1SC2=C3 [compound 77] | 6.00 to 7.00 | – | < 6.00 | > 7.00 | 7.77 | – | – | – | – | – | – | – |
| COc1ncc2cc1NS(=O)(=O)c1cccc(c1)C(=O)NCCCNc1ncnc3c1SC2=C3 [compound 70] | < 6.00 | – | < 6.00 | 6.00 to 7.00 | – | – | – | – | – | – | – | – |
| COCCOc1ccc2cc1C(=O)NCC1=CC=C(S1)c1ncnc3c1SC(=C3C)c1cnc(OC)c(c1)NS2(=O)=O [compound 95] | – | – | – | – | – | 7.70 | > 7.00 | < 6.00 | 6.00 to 7.00 | – | – | – |
| COc1ncc2cc1NS(=O)(=O)c1cccc(c1)C(=O)NCc1cccc(c1)-c1ncnc3c1SC2=C3 [compound 28] | 6.00 to 7.00 | – | < 6.00 | 6.00 to 7.00 | – | – | – | – | – | – | – | – |
| COc1ncc2cc1NS(=O)(=O)c1cccc(c1)C(=O)NCc1cncc(c1)-c1ncnc3c1SC2=C3 [compound 27] | 6.00 to 7.00 | – | < 6.00 | > 7.00 | 7.40 | – | – | – | – | – | – | – |
| COc1ncc2cc1NS(=O)(=O)c1cccc(c1)C(=O)NCc1cncc(c1)-c1c[nH]c3ncc-2cc13 [compound 20] | > 7.00 | 7.10 | 6.00 to 7.00 | < 6.00 | – | – | – | – | – | – | – | – |
| COc1ncc2cc1NS(=O)(=O)c1cc(c(F)cc1F)C(=O)NCc1cccc(c1)-c1cnn3ccc-2nc13 [compound 67] | > 7.00 | 9.30 | > 7.00 | < 6.00 | – | – | – | – | – | 7.92 | – | – |
| COc1ncc2cc1NS(=O)(=O)c1cccc(c1)C(=O)NC[C@H]1CCN(C1)c1ncnc3c1SC2=C3C [compound 99] | – | – | – | – | – | 7.37 | > 7.00 | < 6.00 | > 7.00 | – | 7.28 | – |
| COc1ncc2cc1NS(=O)(=O)c1cccc(c1)C(=O)NCC1=CC=C(S1)c1ccnc3c1SC2=C3C [compound 101] | – | – | – | – | – | 7.59 | > 7.00 | < 6.00 | > 7.00 | – | 7.68 | – |
| COc1ncc2cc1NS(=O)(=O)c1cccc(c1)C(=O)NCCN1CC=C(CC1)c1cnc3ccc-2cn13 [compound 40] | > 7.00 | 8.52 | > 7.00 | < 6.00 | – | – | – | – | – | 7.44 | – | – |
| COc1ncc2cc1NS(=O)(=O)c1cccc(c1)C(=O)NCc1cncc(c1)-c1cnc3ccc-2cn13 [compound 30] | > 7.00 | 7.96 | > 7.00 | < 6.00 | – | – | – | – | – | 7.31 | – | – |
| COc1ncc2cc1NS(=O)(=O)c1cccc(c1)C(=O)NCC1CCN(CC1)c1ccnc3ccc-2cc13 [compound 6] | > 7.00 | 7.96 | > 7.00 | < 6.00 | – | – | – | – | – | 7.14 | – | – |
| COc1ncc2cc1NS(=O)(=O)c1ccc(F)c(c1)C(=O)NCC1=CC=C(S1)c1ncnc3c1SC2=C3C [compound 90] | – | – | – | – | – | 8.74 | > 7.00 | > 7.00 | > 7.00 | – | 7.57 | 7.25 |
| COc1ccc2cc1C(=O)NCC1=CC=C(S1)c1ncnc3c1SC(=C3C)c1cnc(OC)c(c1)NS2(=O)=O [compound 100] | – | – | – | – | – | 8.48 | > 7.00 | < 6.00 | > 7.00 | – | 7.51 | – |
| COc1ncc2cc1NS(=O)(=O)c1cccc(c1)C(=O)NCc1cccc(c1)-c1cnc3ccc-2nn13 [compound 13] | > 7.00 | 9.40 | > 7.00 | < 6.00 | – | – | – | – | – | 8.00 | – | – |
